From patent US20230011571A1, “SMALL MOLECULE FURIN INHIBITORS FOR TREATING INFECTIOUS DISEASES” (BP Asset V, Inc., priority 2019, published 2023) come the findings set out here.

Holding throughout (assay type): cell-based
The subject of assay [1] is Chikungunya virus (CHIKV). Nature of the assay: microbe, parasite or virus in culture. To be noted: Chikungunya virus, Vero, 48 h, read-out: Percent viral inhibition CHKV.
The next assay has as its system dengue virus (DENV). Nature of the assay: microbe, parasite or virus in culture. To be noted: Dengue virus, Vero, 120 h, read-out: Percent viral inhibition DENY.
Another assay relates to Marburg virus (MARV). In words: organism not typed. As to conditions: Vero, 72 h, read-out: Percent viral inhibition MARV.

SMILES strings stand for the structures.

One may read the inhibition as the percentage by which the read-out fell short of the control. For `CCC(=O)NCC1CCN(Cc2cc(Oc3cnc(N4CCN(CCC(C)C(=O)O)CC4)nc3)nc(-c3cc(Cl)cc(Cl)c3)c2)CC1` (stereo not drawn) [Example 59, 4-(4-(5-((6-(3,5-dichlorophenyl)-4-((4-(propionamidomethyl)piperidin-1-yl)methyl)pyridin-2-yl)oxy)pyrimidin-2-yl)piperazin-1-yl)-2-methylbutanoic acid], the figures for the inhibition at 1 µM (in assay [1]; with dengue virus (DENV); with Marburg virus (MARV)) were 35.1%, 53.7% and 57.5%, respectively.

Take `CC(O)CCN1CCN(c2ncc(Oc3cc(CN4CCC(F)CC4)cc(-c4cc(Cl)cc(Cl)c4)n3)cn2)CC1` (stereo not drawn) [Example 60, 4-(4-(5-((6-(3,5-dichlorophenyl)-4-((4-fluoropiperidin-1-yl)methyl)pyridin-2-yl)oxy)pyrimidin-2-yl)piperazin-1-yl)butan-2-ol]: the inhibition at 1 µM in assay [1] came out at 38.8%; in the assay with dengue virus (DENV), 79%; in the assay with Marburg virus (MARV), 53.6%.

In the case of `COC(=O)NCC1CCN(Cc2cc(Oc3cnc(N4CCN(CCC(=O)O)CC4)nc3)nc(-c3cc(Cl)cc(Cl)c3)c2)CC1` [Example 62, 3-(4-(5-((6-(3,5-dichlorophenyl)-4-((4-(((methoxycarbonyl)amino)methyl)piperidin-1-yl)methyl)pyridin-2-yl)oxy)pyrimidin-2-yl)piperazin-1-yl)propanoic acid], the inhibition at 1 µM in assay [1] is 35.2%; in the assay with dengue virus (DENV), 19.1%; in the assay on Marburg virus (MARV) it was 19.9%.

As to `COC(=O)NCC1CCN(Cc2cc(Oc3cnc(N4CCN(C)CC4)nc3)nc(-c3cc(Cl)cc(Cl)c3)c2)CC1` [Example 63, methyl((1-((2-(3,5-dichlorophenyl)-6-((2-(4-methylpiperazin-1-yl)pyrimidin-5-yl)oxy)pyridin-4-yl)methyl)piperidin-4-yl)methyl)carbamate], the inhibition at 1 µM in assay [1] turned out to be 0%; in the assay on dengue virus (DENV) it was 2.35%; with Marburg virus (MARV), 14.7%.

Turning to `CC(=O)NCC1CCN(Cc2cc(Oc3cnc(N4CCN(C)CC4)nc3)nc(-c3cc(Cl)cc(Cl)c3)c2)CC1` [Example 64, N-((1-((2-(3,5-dichlorophenyl)-6-((2-(4-methylpiperazin-1-yl)pyrimidin-5-yl)oxy)pyridin-4-yl)methyl)piperidin-4-yl)methyl)acetamide], the inhibition at 1 µM in assay [1] is 6.9%; in the assay on dengue virus (DENV) it was 37%; with Marburg virus (MARV), 37.8%.

`CNC(=O)OCC1CCN(Cc2cc(Oc3cnc(N4CCN(C)CC4)nc3)nc(-c3cc(Cl)cc(Cl)c3)c2)CC1` [Example 66, (1-((2-(3,5-dichlorophenyl)-6-((2-(4-methylpiperazin-1-yl)pyrimidin-5-yl)oxy)pyridin-4-yl)methyl)piperidin-4-yl)methylmethylcarbamate]: the figures for the inhibition at 1 µM (in assay [1]; in the assay on dengue virus (DENV); with Marburg virus (MARV)) were 7.64%, 57.9% and 60.7%, respectively.

In the case of `CNC(=O)NCC1CCN(Cc2cc(Oc3cnc(N4CCN(C)CC4)nc3)nc(-c3cc(Cl)cc(Cl)c3)c2)CC1` [Example 70, 1-((1-((2-(3,5-dichlorophenyl)-6-((2-(4-methylpiperazin-1-yl)pyrimidin-5-yl)oxy)pyridin-4-yl)methyl)piperidin-4-yl)methyl)-3-methylurea], the figures for the inhibition at 1 µM (in assay [1]; in the assay with dengue virus (DENV); in the assay on Marburg virus (MARV)) were 0%, 0% and 5.52%, respectively.

As to `CN1CCN(c2ncc(Oc3cc(CN4CCC(Cc5nnn[nH]5)CC4)cc(-c4cc(Cl)cc(Cl)c4)n3)cn2)CC1` [Example 72, 5-((4-((4-((1H-tetrazol-5-yl)methyl)piperidin-1-yl)methyl)-6-(3,5-dichlorophenyl)pyridin-2-yl)oxy)-2-(4-methylpiperazin-1-yl)pyrimidine], the inhibition at 1 µM in assay [1] stood at 33.7%; with dengue virus (DENV), 11.2%; in the assay on Marburg virus (MARV), 55.8%.

Take `CNC(=O)OCC1CCN(Cc2cc(Oc3ccc(N4CCN(CCC(=O)O)CC4)nc3)nc(-c3cc(Cl)cc(Cl)c3)c2)CC1` [Example 77, 3-(4-(5-((6-(3,5-dichlorophenyl)-4-((4-(((methylcarbamoyl)oxy)methyl)piperidin-1-yl)methyl)pyridin-2-yl)oxy)pyridin-2-yl)piperazin-1-yl) propanoic acid]: the inhibition at 1 µM in assay [1] was found to be 42%; with dengue virus (DENV), 20.6%; in the assay with Marburg virus (MARV) it was 57.2%.

Turning to `CS(=O)(=O)N[C@H]1[C@@H]2CCN(Cc3cc(Oc4cnc(N5CCN(CCC(=O)O)CC5)nc4)nc(-c4cc(Cl)cc(Cl)c4)c3)CC[C@@H]21` [Example 80, 3-(4-(5-((6-(3,5-dichlorophenyl)-4-(((1R,7S,8r)-8-(methylsulfonamido)-4-azabicyclo[5.1.0]octan-4-yl)methyl)pyridin-2-yl)oxy)pyrimidin-2-yl)piperazin-1-yl)propanoic acid], the inhibition at 1 µM in assay [1] turned out to be 25%; in the assay with dengue virus (DENV) it was 0%; with Marburg virus (MARV) it was 64.6%.

`CC(CCN1CCN(c2ncc(Oc3cc(CN4CC[C@@H]5[C@H](CC4)[C@H]5NS(C)(=O)=O)cc(-c4cc(Cl)cc(Cl)c4)n3)cn2)CC1)C(=O)O` (stereo partly drawn) [Example 81, 4-(4-(5-((6-(3,5-dichlorophenyl)-4-(((1R,7S,8r)-8-(methylsulfonamido)-4-azabicyclo[5.1.0]octan-4-yl)methyl)pyridin-2-yl)oxy)pyrimidin-2-yl)piperazin-1-yl)-2-methylbutanoic acid]: the inhibition at 1 µM stood at 26.1% in assay [1], 50.5% in the assay with dengue virus (DENV) and 73.7% with Marburg virus (MARV).

For the compound `CC(=O)N[C@H]1[C@@H]2CCN(Cc3cc(Oc4cnc(N5CCN(CCC(C)C(=O)O)CC5)nc4)nc(-c4cc(Cl)cc(Cl)c4)c3)CC[C@@H]21` (stereo partly drawn) [Example 82, 4-(4-(5-((4-(((1R,7S,8r)-8-acetamido-4-azabicyclo[5.1.0]octan-4-yl)methyl)-6-(3,5-dichlorophenyl)pyridin-2-yl)oxy)pyrimidin-2-yl)piperazin-1-yl)-2-methylbutanoic acid], the results for the inhibition at 1 µM (in assay [1]; in the assay on dengue virus (DENV); in the assay with Marburg virus (MARV)) were 18.4%, 19.8% and 53.2%, respectively.

For the compound `CC(CCN1CCN(c2ncc(Oc3cc(CN4CCCC4)cc(-c4cc(Cl)cc(Cl)c4)n3)cn2)CC1)C(=O)O` (stereo not drawn) [Example 83, 4-(4-(5-((6-(3,5-dichlorophenyl)-4-(pyrrolidin-1-ylmethyl)pyridin-2-yl)oxy)pyrimidin-2-yl)piperazin-1-yl)-2-methylbutanoic acid], the inhibition at 1 µM in assay [1] was determined as 33.4%; in the assay with dengue virus (DENV), 28.9%; in the assay with Marburg virus (MARV), 53.8%.

Take `CN1CCN(c2ncc(Oc3cc(CN4CCC(CCS(N)(=O)=O)CC4)cc(-c4cc(Cl)cc(Cl)c4)n3)cn2)CC1` [Example 87, 2-(1-((2-(3,5-dichlorophenyl)-6-((2-(4-methylpiperazin-1-yl)pyrimidin-5-yl)oxy)pyridin-4-yl)methyl)piperidin-4-yl)ethanesulfonamide]: the inhibition at 1 µM worked out at 16.9% in assay [1], 30.2% with dengue virus (DENV) and 30.3% with Marburg virus (MARV).

Turning to `CC(=O)NCC1CCN(Cc2cc(Oc3cnc(N4CCN(CCC(N)=O)CC4)nc3)nc(-c3cc(Cl)cc(Cl)c3)c2)CC1` [Example 88, 3-(4-(5-((4-((4-(acetamidomethyl)piperidin-1-yl)methyl)-6-(3,5-dichlorophenyl)pyridin-2-yl)oxy)pyrimidin-2-yl)piperazin-1-yl)propanamide], the results for the inhibition at 1 µM (in assay [1]; with dengue virus (DENV); with Marburg virus (MARV)) were 10.9%, 54.6% and 58.6%, respectively.

For the compound `CC(=O)NCC1CCN(Cc2cc(-c3cc(Cl)cc(Cl)c3)nc(Oc3ccc(N4CCNCC4)nc3)n2)CC1` [Example 90, N-((1-((6-(3,5-dichlorophenyl)-2-((6-(piperazin-1-yl)pyridin-3-yl)oxy)pyrimidin-4-yl)methyl)piperidin-4-yl)methyl)acetamide], the inhibition at 1 µM in assay [1] was found to be 44.2%; in the assay on dengue virus (DENV) it was 54.9%; in the assay on Marburg virus (MARV) it was 75.5%.

Consider `CC(=O)NCC1CCN(Cc2cc(Oc3cnc(N4CCN(CCO)CC4)nc3)nc(-c3cc(Cl)cc(Cl)c3)c2)CC1` [Example 93, N-((1-((2-(3,5-dichlorophenyl)-6-((2-(4-(2-hydroxyethyl)piperazin-1-yl)pyrimidin-5-yl)oxy)pyridin-4-yl)methyl)piperidin-4-yl)methyl)acetamide], for which the inhibition at 1 µM in assay [1] came to 0%; with dengue virus (DENV) it was 56.7%; in the assay with Marburg virus (MARV), 10.4%.

`CNC(=O)CCN1CCN(c2ncc(Oc3cc(CN4CCC(CNC(C)=O)CC4)cc(-c4cc(Cl)cc(Cl)c4)n3)cn2)CC1` [Example 94, 3-(4-(5-((4-((4-(acetamidomethyl)piperidin-1-yl)methyl)-6-(3,5-dichlorophenyl)pyridin-2-yl)oxy)pyrimidin-2-yl)piperazin-1-yl)-N-methylpropanamide]: the inhibition at 1 µM came out at 31.3% in assay [1], 41.5% in the assay on dengue virus (DENV) and 66% with Marburg virus (MARV).

With `CC(=O)NCC1CCN(Cc2cc(Oc3cnc(N4CCN(C(C)CC(N)=O)CC4)nc3)nc(-c3cc(Cl)cc(Cl)c3)c2)CC1` (stereo not drawn) [Example 95], the results for the inhibition at 1 µM (in assay [1]; in the assay with dengue virus (DENV); with Marburg virus (MARV)) were 46.6%, 58.1% and 59%, respectively.

As for `CNCc1cc(Oc2ccc(N3CCNCC3)nc2)cc(-c2cc(Cl)cc(Cl)c2)c1` [Example 98, 1-(3′,5′-dichloro-5-((6-(piperazin-1-yl)pyridin-3-yl)oxy)-[1,1′-biphenyl]-3-yl)-N-methylmethanamine], the inhibition at 1 µM (in assay [1]; in the assay with dengue virus (DENV); with Marburg virus (MARV)) was 0% in each case.

As to `NCCNc1ccc(Oc2cc(CN3CCOCC3)cc(-c3cc(Cl)cc(Cl)c3)c2)cn1` [Example 99, N1-(5-((3′,5′-dichloro-5-(morpholinomethyl)-[1,1′-biphenyl]-3-yl)oxy)pyridin-2-yl)ethane-1,2-diamine], the inhibition at 1 µM in assay [1] was determined as 0%; with dengue virus (DENV), 15.4%; in the assay with Marburg virus (MARV), 0%.
